Measurements as given in US20190350885A1, “PROPHYLAXIS TREATMENT FOR ACUTE MYELOID LEUKEMIA” (Indiana University Research and Technology Corporation, priority 2017, published 2019).
“Also recorded” adds a separate entry of the source.

Assays:
[1] = system: Tet2-KO Lin-negative bone marrow cells; test: CFU (colony forming unit) assay, primary and secondary replating; type: cell-based, mouse; conditions: primary and secondary plating, in vitro
Excerpt: CFU assay. Bone marrow Lin-negative cells or LSK cells were isolated as described above and platted in a CFU assay using MethoCult™ GF M3434 (Stem Cell). Colonies were counted after 7-days of culture.

Morrbid promoter = test: CHIP-qPCR assay of IκBζ and Stat3 binding; type: cell-based, mouse; conditions: Tet2-KO Lin-negative bone marrow cells
Excerpt: CHIP-qPCR assay. BM Lin-negative cells were used to extract chromatin DNA using MAGnify™ Chromatin Immunoprecipitation System (ThermoFisher) according to the manufacturer's instruction. CHIP purified chromatin DNA and input DNA were normalized to identical concentration for qPCR validation and enrichment analysis (1% enrichment of input level was defined as unit 1). The following antibodies were used for chromatin precipitation:Anti-IκBζ and Anti-Stat3 (Cell Signaling Technologies).

Tet2-KO mice = test: LPS-induced acute inflammation (emergency granulopoiesis/hematopoiesis) in mice; type: in vivo, mouse; conditions: for LPS-induced expansion of LSK cells in bone marrow / LPS-induced emergency neutrophil production in peripheral blood (emergency granulopoiesis): LPS 0.8 mg/kg i.p. one dose, drug two days before and two days after LPS, day 2 post LPS; for LPS-induced emergency neutrophil production in peripheral blood (emergency granulopoiesis): APX3330 20 mg/kg twice a day i.p., SHP099 50 mg/kg daily gavage
Excerpt: Mice, LPS treatment and peripheral blood analysis. All mice were bred and maintained under specified pathogen-free (SPF) conditions at an animal facility at Indiana University School of Medicine. Experiments with mice were approved by the Institutional Animal Care and Use Committee (IACUC) of Indiana University School of Medicine. Tet2-knockout mice (Tet2^−/−, or Tet2-KO, CD45.2) is on C57BL/6 genetic background and has been previously described in Li et al., Blood 118, 4509-4518 (2011). Normal C57BL/6 (wild type, CD45.2) mice were purchased from The Jackson Laboratory and used as controls for all experiments. Whenever possible littermates were used as controls for all experiments.
(§1) Lipopolysaccharide (LPS) was purchased from Sigma (Cat # L8643) and dissolved in sterile phosphate-buffered saline (PBS) prior to being given to the mice for one dose only (0.8 mg/kg, i.p.). APX3330 (also referred to herein as E3330) was dissolved in Cremophor:EtOH (1:1) (Cremophor were purchased from Sigma, Cat # C5135) for making solution stock and then diluted in PBS prior to be used for pre-LPS treatment or post-LPS treatment (20 mg/kg, twice a day, i.p.). SHP099 (provided by Norvartis), was dissolved in 0.5% Methylcellulose (Sigma, Cat# M0262) and 0.1% Tween-80 (Fisher Scientific, Cat #BP338-500) and fed to animals by gavage (daily, 50 mg/kg). Male and female mice between 3-4 weeks (juvenile mice) or 8-16 weeks (adult mice) of age were used for LPS or LPS plus APX3330 experiments. Age and sex matched mice were always used as naïve (Day 0) controls. Aged Tet2-KO mice (male or female, 6-8 months of age) were used for APX3330 or SHP099 treatment in FIGS. 11A-11D.
(§2) Hematological analysis on peripheral blood (PB, from tail-bleeding) was run by an automated cell counter machine (Drew Hemavet 950). Total bone marrow (BM) cells were harvested from two femurs and two tibias of mice and filtered on 50-μm sterile filters. BM cells were always kept on ice or in refrigeration and stored in sterile blocking buffer containing 2% rat-serum prior to analysis. BM cellularity (viable cell counts) was analyzed by an automated cell counter (Beckman the Vi-CELL™ Cell Counter for Cell Viability Analyzer).
(§3) Flow cytometry. Non-lysed BM cells were used for analysis of erythroid lineage and progenitor cells (Ter119 and CD71 staining). Remaining flow cytometry analysis was performed on lysed bone marrow cells (Lysis Buffer, BD, Cat #555899). Antibodies against Ter119, Mac1, Gr1, B220, CD3, CD4 and CD8 were used for mature cells labeling (Linage labeling). Progenitor cells were labeled and analyzed by indicated markers. Antibody-labeled BM cells were run on a BD FACS-CANTO II machine with a two-laser and six-filter configuration. The properly compensated flow data were analyzed by Flow Jo software (V10.2). Events plotting, calculation of frequency and mean of fluorescence intensity (MFI), and histogram overlaying were analyzed by Flow Jo software.
It was next examined if APX3330 or SHP099 could repress inflammation and “emergency hematopoiesis” in Tet2-KO mice in vivo. It was first assessed if APX3330 or SHP099 could normalize LPS-induced acute inflammation. Before challenging the mice with LPS, wildtype and Tet2-KO mice were prophylactically treated with APX3330 or SHP099 for two days. Post LPS treatment, APX3330 or SHP099 was continuously injected in these mice for another two days (FIG. 13A). On day 2, post LPS treatment, mice were sacrificed and analyzed.

aged Tet2-KO mice = test: Treatment of aged Tet2-KO mice with early signs of MPN; type: in vivo, mouse; conditions: for frequency of LSKs and CMPs / neutrophil counts (absolute numbers, burden) in peripheral blood / neutrophil frequency (percentage) in peripheral blood / platelet counts / red blood cell (RBC) counts (anemia) / serum IL-6 levels / spleen weight / splenomegaly / white blood cell (WBC) burden/count: treatment for 14 days; for early signs of MPN: aged Tet2-KO mice
Procedure: as §1, §2, §3
Multiplex cytokine assays. Serum samples were prepared from PB (tail-bleeding) and diluted in sterile PBS (1 to 2 dilution(s)). Thirty-one cytokines or chemokines were quantified by multiplex immunoassay with a BioPlex 200 instrument (Eve Technologies, Mouse Cytokine Array/Chemokine Array 31-Plex, Cat # MD31).
Statistics. All experimental procedures on Tet2-KO samples were run in parallel with wildtype controls (sex and age matched littermate controls when possible) for observing experimental variabilities. Analysis of grouped data was not blinded and no samples were excluded. Aged Tet2-KO mice were randomized into two groups for treatment with APX3330 or vehicle, SHP099 or vehicle (FIGS. 11A-11D). P-value was calculated using an unpaired t-test for comparing means of two groups (GraphPad Prism 6.0). Error bars in FIGS. 1-10 and 11A indicate the standard error of mean (s.e.m.) while error bars in FIG. 11C indicate the standard deviation (s.d.). Except that the secondary cBMT was performed in only one independent experiment for each group, all other assays were performed in at least two independent experiments with at least 3-5 biological replicates in total.
Furthermore, aged Tet2-KO maintained higher level of serum IL-6 compared to wildtype mice (FIG. 13H). 6-month old Tet2-KO mice were treated with APX3330 or SHP099 to assess the potential therapeutic benefit of these drugs in older mice (daily treatment for 14 days, FIG. 13I).

phospho-Stat3 = phospho-Stat3 expression in Tet2-KO Lin-negative cells; type: cell-based, mouse
[2] = aged (6-month old) Tet2-KO mice
[3] = aged (6-month old) Tet2-KO mice, listed as E3330

SMILES	colony forming ability (CFU formation) [1]	IκBζ and Stat3 binding to Morrbid promoter (Morrbid promoter)	LPS-induced expansion of LSK cells in bone marrow (Tet2-KO mice)	LPS-induced emergency neutrophil production in peripheral blood (emergency granulopoiesis) (Tet2-KO mice)	frequency of LSKs and CMPs (aged Tet2-KO mice; [2])	neutrophil counts (absolute numbers, burden) in peripheral blood (aged Tet2-KO mice; [2])	neutrophil frequency (percentage) in peripheral blood (aged Tet2-KO mice; [2])	platelet counts (aged Tet2-KO mice; [2])	red blood cell (RBC) counts (anemia) (aged Tet2-KO mice; [2])	serum IL-6 levels (aged Tet2-KO mice; [2])	spleen weight / splenomegaly (aged Tet2-KO mice; [2])	white blood cell (WBC) burden/count (aged Tet2-KO mice; [2])	early signs of MPN (aged Tet2-KO mice)	also measured
CCCCCCCCCC(=CC1=C(C)C(=O)C(OC)=C(OC)C1=O)C(=O)O [APX3330]	normalization of colony formation; also recorded: block the enhanced colony forming activity	reduced IKBζ and Stat3 binding to Morrbid promoter	significant correction; also recorded: effectively repressed; also recorded: represses the expansion of LSK cells	significant correction in the enhanced production of neutrophils; also recorded: effectively repressed; also recorded: represses emergency neutrophil production	failed to reverse	significantly reduced	significantly reduced	restored	restores; also recorded: rescued to normal levels	reduced	a reduction in spleen weight was also observed in drug treated Tet2-KO mice, although it did not reach statistical significance; also recorded: failed to alter splenomegaly	significantly reduce; also recorded: restores	reverses early signs of MPN	colony forming ability (CFU formation) ([1]; listed as E3330): corrected the enhanced colony forming ability; IκBζ and Stat3 binding to Morrbid promoter (Morrbid promoter; listed as E3330): rescues the enhanced binding of IκBζ and Stat3 to the Morribid promoter; LPS-induced emergency neutrophil production in peripheral blood (emergency granulopoiesis) (Tet2-KO mice; listed as E3330): repressed; LPS-induced expansion of LSK cells in bone marrow (Tet2-KO mice; listed as E3330): repressed; bone marrow cellularity (Tet2-KO mice; LPS-treated wild type and Tet2-KO mice, short-term treatment): maintained normal bone marrow cellularity; hematocrits (HCT) (aged Tet2-KO mice; [2]): rescued to normal levels; neutrophil counts (absolute numbers, burden) in peripheral blood (aged Tet2-KO mice; [3]): rescue; neutrophil frequency (percentage) in peripheral blood (aged Tet2-KO mice; [3]): rescue; serum IL-6 levels (aged Tet2-KO mice; [3]): rescue; early signs of MPN (aged Tet2-KO mice; listed as E3330): reversed early signs of MPN
CC1(N)CCN(c2cnc(-c3cccc(Cl)c3Cl)c(N)n2)CC1 [SHP099, 6-(4-amino-4-methyl-1-piperidinyl)-3-(2,3-dichlorophenyl)-2-pyrazinamine]	decreased; also recorded: block the enhanced colony forming activity; also recorded: corrected the enhanced colony forming ability	decreased; also recorded: rescues the enhanced binding of IκBζ and Stat3 to the Morribid promoter	significant correction; also recorded: effectively repressed	significant correction in the enhanced production of neutrophils; also recorded: effectively repressed	failed to reverse	significantly reduce; also recorded: rescue	rescue	restored	restores	reduced; also recorded: rescue	a reduction in spleen weight was also observed in drug treated Tet2-KO mice, although it did not reach statistical significance	significantly reduce; also recorded: restores	reversed early signs of MPN	expression of phospho-Stat3 (phospho-Stat3): decreased expression of phospho-Stat3
